Test results published in article PMC4010550, “Imidazol-1-ylethylindazole Voltage-Gated Sodium Channel Ligands Are Neuroprotective during Optic Neuritis in a Mouse Model of Multiple Sclerosis” (Journal of Medicinal Chemistry, 2014).
Where two headings read alike, the source gives them in different places. Marks after values point to notes of the source that are not given here.

Key:
rat hippocampal slices [1] = assay: in vitro neuroprotection assay, hippocampal slices under oxygen-glucose deprivation, ATP levels; type: cell-based; conditions: for Emax at 50 µM: Rattus norvegicus
hNav1.1 = hNav1.1 (Homo sapiens, UniProt P35498); assay: automated patch-clamp Nav isoform screening; type: cell-based; conditions: Nav1.1
hNav1.2 = hNav1.2 (Homo sapiens, UniProt Q99250); assay: automated patch-clamp Nav isoform screening; type: cell-based; conditions: Nav1.2
hNav1.3 = hNav1.3 (Homo sapiens, UniProt Q9NY46); assay: automated patch-clamp Nav isoform screening; type: cell-based; conditions: Nav1.3
hNav1.4 = hNav1.4 (Homo sapiens, UniProt P35499); assay: automated patch-clamp Nav isoform screening; type: cell-based; conditions: Nav1.4
hNav1.5 = hNav1.5 (Homo sapiens, UniProt Q14524); assay: automated patch-clamp Nav isoform screening; type: cell-based; conditions: Nav1.5
hNav1.6 = hNav1.6 (Homo sapiens, UniProt Q9UQD0); assay: automated patch-clamp Nav isoform screening; type: cell-based; conditions: Nav1.6
hNav1.7 = hNav1.7 (Homo sapiens, UniProt Q15858); assay: automated patch-clamp Nav isoform screening; type: cell-based; conditions: Nav1.7
hNav1.8/β3 = hNav1.8/β3 (Homo sapiens, UniProt Q9Y5Y9); assay: automated patch-clamp Nav isoform screening; type: cell-based; conditions: Nav1.8
[2] = tested on: T-cell proliferation to oxazolone in lymphnodes; assay: contact hypersensitivity model / in vivo local lymph node assay (T-cell immunosuppressive activity); conditions: mouse, 5–50 mg/kg i.p. day −1 to day 2, oxazolone sensitization day 0, read day 3
sodium channels = tested on: sodium channels; set-up: method as in PMID 19341281; conditions: reported previously / values reported in literature; read-out: [3H]sipatrigine binding, IC50; cited from earlier work
rat hippocampal slices [3] = tested on: rat hippocampal slices; set-up: method as in PMID 19341281; conditions: reported previously; cited from earlier work
[4] = normalized to the effect of TTX

Sequence of hNav1.8/β3 (Q9Y5Y9 whole entry, canonical isoform): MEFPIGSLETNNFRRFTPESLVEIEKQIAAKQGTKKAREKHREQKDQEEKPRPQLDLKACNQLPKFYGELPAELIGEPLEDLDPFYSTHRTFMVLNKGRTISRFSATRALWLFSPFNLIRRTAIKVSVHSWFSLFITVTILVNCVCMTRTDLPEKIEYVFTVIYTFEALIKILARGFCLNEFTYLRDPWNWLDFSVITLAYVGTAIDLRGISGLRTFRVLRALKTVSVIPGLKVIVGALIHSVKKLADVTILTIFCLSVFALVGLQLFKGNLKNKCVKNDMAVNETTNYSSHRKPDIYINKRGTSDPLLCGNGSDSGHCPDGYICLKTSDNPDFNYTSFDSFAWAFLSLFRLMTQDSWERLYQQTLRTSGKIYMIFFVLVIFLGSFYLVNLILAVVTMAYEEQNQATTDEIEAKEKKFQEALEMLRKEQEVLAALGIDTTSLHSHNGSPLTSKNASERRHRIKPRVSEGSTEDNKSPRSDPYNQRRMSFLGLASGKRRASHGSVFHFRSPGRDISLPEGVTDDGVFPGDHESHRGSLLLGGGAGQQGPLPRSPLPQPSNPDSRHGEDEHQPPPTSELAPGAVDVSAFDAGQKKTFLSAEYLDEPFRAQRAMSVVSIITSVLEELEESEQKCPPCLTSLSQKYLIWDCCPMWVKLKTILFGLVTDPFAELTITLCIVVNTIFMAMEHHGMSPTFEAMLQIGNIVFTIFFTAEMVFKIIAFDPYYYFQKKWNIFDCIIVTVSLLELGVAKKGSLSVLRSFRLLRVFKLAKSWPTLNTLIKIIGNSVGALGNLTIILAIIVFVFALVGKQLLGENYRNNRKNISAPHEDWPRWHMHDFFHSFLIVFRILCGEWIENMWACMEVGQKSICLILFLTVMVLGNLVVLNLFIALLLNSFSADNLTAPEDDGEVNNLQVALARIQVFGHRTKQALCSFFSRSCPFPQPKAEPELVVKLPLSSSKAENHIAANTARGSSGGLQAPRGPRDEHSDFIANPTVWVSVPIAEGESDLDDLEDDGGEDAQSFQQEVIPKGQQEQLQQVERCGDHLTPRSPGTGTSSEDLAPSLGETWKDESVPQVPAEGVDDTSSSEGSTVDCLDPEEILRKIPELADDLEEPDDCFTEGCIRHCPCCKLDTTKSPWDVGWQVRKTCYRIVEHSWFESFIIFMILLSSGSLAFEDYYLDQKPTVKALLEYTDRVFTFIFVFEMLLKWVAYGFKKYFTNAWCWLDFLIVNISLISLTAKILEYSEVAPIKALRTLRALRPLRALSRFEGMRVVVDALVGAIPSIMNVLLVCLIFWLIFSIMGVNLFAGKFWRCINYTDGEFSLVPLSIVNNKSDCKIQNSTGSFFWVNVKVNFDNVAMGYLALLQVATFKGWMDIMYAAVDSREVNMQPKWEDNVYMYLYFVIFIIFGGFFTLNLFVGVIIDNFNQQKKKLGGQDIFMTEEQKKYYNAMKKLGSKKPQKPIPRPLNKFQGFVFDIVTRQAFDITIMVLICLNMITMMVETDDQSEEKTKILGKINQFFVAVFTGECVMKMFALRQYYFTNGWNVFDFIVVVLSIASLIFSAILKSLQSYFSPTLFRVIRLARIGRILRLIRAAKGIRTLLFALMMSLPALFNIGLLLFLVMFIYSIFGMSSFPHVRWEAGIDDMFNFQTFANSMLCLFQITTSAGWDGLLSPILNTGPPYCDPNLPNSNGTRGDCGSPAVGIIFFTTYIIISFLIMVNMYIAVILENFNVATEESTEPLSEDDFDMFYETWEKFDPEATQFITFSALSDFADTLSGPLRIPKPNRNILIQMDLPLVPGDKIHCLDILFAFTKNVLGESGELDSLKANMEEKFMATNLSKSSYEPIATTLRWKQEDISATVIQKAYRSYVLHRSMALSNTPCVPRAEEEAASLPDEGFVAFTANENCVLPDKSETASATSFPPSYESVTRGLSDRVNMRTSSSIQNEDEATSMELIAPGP
Sequence of hNav1.8/β3 (Q9NY72 25-215 partner limits assumed): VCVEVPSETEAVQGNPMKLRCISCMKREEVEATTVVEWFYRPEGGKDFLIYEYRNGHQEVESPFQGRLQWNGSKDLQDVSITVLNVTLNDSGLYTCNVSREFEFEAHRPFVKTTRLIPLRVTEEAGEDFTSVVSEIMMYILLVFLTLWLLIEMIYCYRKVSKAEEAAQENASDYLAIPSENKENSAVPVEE
Sequence of hNav1.6 (Q9UQD0 whole entry, canonical isoform): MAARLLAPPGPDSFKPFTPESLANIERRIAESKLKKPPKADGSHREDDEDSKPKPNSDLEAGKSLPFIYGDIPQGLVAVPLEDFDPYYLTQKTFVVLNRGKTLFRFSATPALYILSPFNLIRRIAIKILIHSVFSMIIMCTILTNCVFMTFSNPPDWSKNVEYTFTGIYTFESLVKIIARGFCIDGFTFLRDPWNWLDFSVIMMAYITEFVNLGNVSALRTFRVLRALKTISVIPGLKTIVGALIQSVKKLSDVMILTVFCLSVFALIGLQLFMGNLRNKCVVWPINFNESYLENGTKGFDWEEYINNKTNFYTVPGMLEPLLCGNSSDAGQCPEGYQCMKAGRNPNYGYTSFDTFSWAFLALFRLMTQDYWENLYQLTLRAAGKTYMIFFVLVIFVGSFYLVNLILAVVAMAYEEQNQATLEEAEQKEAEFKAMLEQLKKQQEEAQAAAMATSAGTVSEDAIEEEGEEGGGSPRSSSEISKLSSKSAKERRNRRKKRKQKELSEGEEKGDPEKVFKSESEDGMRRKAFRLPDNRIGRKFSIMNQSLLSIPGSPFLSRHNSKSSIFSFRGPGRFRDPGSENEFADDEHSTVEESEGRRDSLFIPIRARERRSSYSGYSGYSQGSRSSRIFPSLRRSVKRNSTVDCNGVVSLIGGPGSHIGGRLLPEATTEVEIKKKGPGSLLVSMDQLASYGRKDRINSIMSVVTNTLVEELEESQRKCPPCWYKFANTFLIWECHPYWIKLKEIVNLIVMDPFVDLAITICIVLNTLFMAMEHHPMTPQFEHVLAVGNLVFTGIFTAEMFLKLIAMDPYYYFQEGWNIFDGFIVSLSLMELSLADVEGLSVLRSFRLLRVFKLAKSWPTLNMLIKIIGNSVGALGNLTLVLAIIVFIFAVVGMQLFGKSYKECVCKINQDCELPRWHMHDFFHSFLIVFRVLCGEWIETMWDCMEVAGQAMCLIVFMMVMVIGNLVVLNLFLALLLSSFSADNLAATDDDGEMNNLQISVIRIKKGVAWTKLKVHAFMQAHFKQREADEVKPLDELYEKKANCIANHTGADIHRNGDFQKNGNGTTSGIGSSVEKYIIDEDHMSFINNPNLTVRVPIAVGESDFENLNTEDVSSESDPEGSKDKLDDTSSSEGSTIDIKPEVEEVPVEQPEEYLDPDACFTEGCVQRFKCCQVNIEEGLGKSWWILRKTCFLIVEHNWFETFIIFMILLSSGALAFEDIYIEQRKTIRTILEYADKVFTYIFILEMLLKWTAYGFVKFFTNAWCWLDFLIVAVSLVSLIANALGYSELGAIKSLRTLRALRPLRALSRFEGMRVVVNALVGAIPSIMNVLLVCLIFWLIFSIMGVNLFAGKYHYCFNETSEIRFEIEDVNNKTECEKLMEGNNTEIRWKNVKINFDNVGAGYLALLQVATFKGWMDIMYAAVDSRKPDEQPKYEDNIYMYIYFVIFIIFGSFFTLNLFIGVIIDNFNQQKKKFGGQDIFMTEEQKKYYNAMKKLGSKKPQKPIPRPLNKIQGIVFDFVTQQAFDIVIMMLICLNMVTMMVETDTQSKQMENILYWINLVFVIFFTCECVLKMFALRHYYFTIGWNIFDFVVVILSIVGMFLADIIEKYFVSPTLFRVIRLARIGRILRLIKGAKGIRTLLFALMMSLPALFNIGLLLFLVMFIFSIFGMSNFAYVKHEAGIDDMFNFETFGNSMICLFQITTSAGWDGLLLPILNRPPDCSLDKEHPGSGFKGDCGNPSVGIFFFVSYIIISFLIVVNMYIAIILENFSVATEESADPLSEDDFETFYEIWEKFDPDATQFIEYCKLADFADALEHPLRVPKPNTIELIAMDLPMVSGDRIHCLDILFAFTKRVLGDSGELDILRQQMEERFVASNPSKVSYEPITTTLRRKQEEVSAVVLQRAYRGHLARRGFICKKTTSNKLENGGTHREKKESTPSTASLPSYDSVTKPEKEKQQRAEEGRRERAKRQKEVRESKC

O=C(NCc1noc(-c2nn(CCn3ccnc3)c3ccccc23)n1)c1ccccc1 [compound 6, N-[[5-[1-(2-Imidazol-1-ylethyl)indazol-3-yl]-1,2,4-oxadiazol-3-yl]methyl]benzamide]
Emax at 50 µM (rat hippocampal slices [1]; [4]): 46% | inactivated-state block (c) n (slope of the fit) (hNav1.1): 1.71 ± 0.73 | 10 Hz block (b) n (slope of the fit) (hNav1.2): 1.82 ± 0.73 | inactivated-state block (c) n (slope of the fit) (hNav1.2): 1.48 ± 0.38 | tonic block (a) n (slope of the fit) (hNav1.2): 1.12 ± 0.51 | inactivated-state block (c) n (slope of the fit) (hNav1.3): 0.78 ± 0.15 | 10 Hz block (b) n (slope of the fit) (hNav1.4): 1.21 ± 0.36 | inactivated-state block (c) n (slope of the fit) (hNav1.4): 1.43 ± 0.27 | 10 Hz block (b) n (slope of the fit) (hNav1.5): 1.16 ± 0.54 | inactivated-state block (c) n (slope of the fit) (hNav1.5): 0.99 ± 0.22 | inactivated-state block (c) n (slope of the fit) (hNav1.6): 2.45 ± 2.59 | inactivated-state block (c) n (slope of the fit) (hNav1.7): 2.24 ± 0.17 | tonic block (a) n (slope of the fit) (hNav1.7): 2.09 ± 1.73 | inactivated-state block (c) n (slope of the fit) (hNav1.8/β3): 1.42 ± 0.1 | T-cell immunosuppressive activity (inhibitory effect of sensitization; lymph node cell numbers, per cell proliferative response) [2]: no evidence suggestive of any inhibitory effect of sensitization

CC(C)(C)OC(=O)NCc1noc(-c2nn(Cc3ccccc3)c3ccccc23)n1 [compound 14]
IC50 (sodium channels): 8.3 µM | neuroprotection at 50 μM (rat hippocampal slices [3]): 19 ^e %

CC(C)(C)OC(=O)NCc1noc(-c2c3ccccc3nn2Cc2ccccc2)n1 [compound 15]
IC50 (sodium channels): 5.5 µM | neuroprotection at 50 μM (rat hippocampal slices [3]): 25 ^e %

NCc1noc(-c2nn(Cc3ccccc3)c3ccccc23)n1 [compound 24]
IC50 (sodium channels): 3.3 ± 0.6 µM

NCc1noc(-c2c3ccccc3nn2Cc2ccccc2)n1 [compound 25]
IC50 (sodium channels): 7 ± 2.8 µM

O=C(NCc1noc(-c2c3ccccc3nn2CCn2ccnc2)n1)c1ccccc1 [compound 34]
Emax at 50 µM (rat hippocampal slices [1]; [4]): 41 ± 9.4%

COc1cccc(C(=O)NCc2noc(-c3nn(CCn4ccnc4)c4ccccc34)n2)c1OC [compound 41]
Emax at 50 µM (rat hippocampal slices [1]; [4]): 71%

O=C(NCc1noc(-c2c3ccccc3nn2CCn2ccnc2)n1)c1cccc(OC(F)(F)F)c1 [compound 51]
10 Hz block (b) n (slope of the fit) (hNav1.1): 1.32 ± 0.16 | inactivated-state block (c) n (slope of the fit) (hNav1.1): 2.09 ± 0.32 | tonic block (a) n (slope of the fit) (hNav1.1): 1.09 ± 0.24 | 10 Hz block (b) n (slope of the fit) (hNav1.2): 0.63 ± 0.14 | inactivated-state block (c) n (slope of the fit) (hNav1.2): 0.6 ± 0.12 | tonic block (a) n (slope of the fit) (hNav1.2): 0.48 ± 0.14 | 10 Hz block (b) n (slope of the fit) (hNav1.3): 0.35 ± 0.19 | inactivated-state block (c) n (slope of the fit) (hNav1.3): 0.96 ± 0.19 | 10 Hz block (b) n (slope of the fit) (hNav1.4): 1.34 ± 0.13 | inactivated-state block (c) n (slope of the fit) (hNav1.4): 1.75 ± 0.12 | tonic block (a) n (slope of the fit) (hNav1.4): 1.23 ± 0.18 | 10 Hz block (b) n (slope of the fit) (hNav1.5): 0.37 ± 0.13 | inactivated-state block (c) n (slope of the fit) (hNav1.5): 0.49 ± 0.15 | tonic block (a) n (slope of the fit) (hNav1.5): 0.76 ± 0.23 | 10 Hz block (b) n (slope of the fit) (hNav1.6): 0.42 ± 0.19 | inactivated-state block (c) n (slope of the fit) (hNav1.6): 1.17 ± 0.18 | 10 Hz block (b) n (slope of the fit) (hNav1.7): 2.63 ± 0.33 | inactivated-state block (c) n (slope of the fit) (hNav1.7): 2.5 ± 0.1 | tonic block (a) n (slope of the fit) (hNav1.7): 2.59 ± 0.41 | 10 Hz block (b) n (slope of the fit) (hNav1.8/β3): 2.62 ± 1.05 | inactivated-state block (c) n (slope of the fit) (hNav1.8/β3): 2.75 ± 0.66 | tonic block (a) n (slope of the fit) (hNav1.8/β3): 2.14 ± 0.51

Nc1nnc(-c2cccc(Cl)c2Cl)c(N)n1 [lamotrigine, reference compound]
neuroprotection (rat hippocampal slices [1]; tested at 30 μM, normalized to the effect of TTX): 33 ^b % | IC50 (sodium channels): 1.8 ± 0.2 µM

CN1CCN(c2ncc(-c3cc(Cl)cc(Cl)c3Cl)c(N)n2)CC1 [sipatrigine, reference compound]
neuroprotection (rat hippocampal slices [1]; tested at 3 μM): 93 ^d % | IC50 (sodium channels): 0.04 ± 0.001 µM

NC1=N[C@H](O)[C@H]2[C@H]3O[C@]4(O)O[C@@H]([C@@H](O)[C@@]2(N1)[C@@H]4O)[C@]3(O)CO [tetrodotoxin, reference compound]
neuroprotection (rat hippocampal slices [1]): 100 ^c %
